Test results taken from patent US20190022117A1, “COMBINATION THERAPY” (NuCana plc, priority 2015, published 2019).
Where two headings read alike, the source gives them in different places.

Tests used:
5637 = test: CellTiter-Glo cytotoxicity assay, single agents (Stage 1); assay type: cell-based; settings: CTG assay 72 h
Protocol: (§1) A2780, SK-OV-3, OVCAR-3, NCI-H460, NCI-H1975, NCI-H2122, 5637 and HT1376 were cultured in RPMI Medium 1640 (Invitrogen-22400105) supplemented with 10% fetal bovine serum (FBS; Invitrogen-10099141). All the cell lines were maintained in a humidified incubator at 37° C. with 5% CO2. Cell culture media and supplements were purchased from Invitrogen, and tissue culture flasks were purchased from Corning, 96-well plates and 384-well plates were purchased from Greiner. CellTiter-Glo Luminescent Cell Viability Assay kits were purchased from Promega (Promega-G7573), cells counter Vi-Cell was purchased from Beckman, detection instrument Envision was purchased from PerkinElmer.
(§2) Paclitaxcel (used as a reference) and cisplatin were purchased from SELLECK, and they were of highest purity available. All compounds attained solubility in DMSO and when diluted into culture media. DMSO, compounds solutions and culture media were warmed to 37° C. for the solution preparation and dilutions.
(§3) Eight cell lines were allowed to adhere to 96-well plates overnight (100 μL/well), for drug treatments with 3.16 fold dilution, 9 dose points, triplicates or vehicle control, compound stock solutions were prepared in DMSO and added to the wells to give the indicated final drug concentrations. Final DMSO concentration was 0.5%. Cellular ATP concentrations were assessed by using the CellTiter-Glo Cell Viability Assay as per the manufacturer's instructions 72 h after drug addition.
(§4) In Stage 1 the IC50 (using 5 or more concentrations) of each individual compound (cisplatin, gemcitabine and NUC-1031) in the relevant cell lines was determined.

A2780 = test: as above; assay type: cell-based; settings: CTG assay 72 h; for IC50: Homo sapiens
Protocol: as §1, §2, §3, §4

HT1376 = test: as above; assay type: cell-based; settings: for IC50: Homo sapiens, HT-1376, CTG assay 72 h
Protocol: as §1, §2, §3, §4

NCI-H1975 = test: as above; assay type: cell-based; settings: CTG assay 72 h; for IC50: Homo sapiens
Protocol: as §1, §2, §3, §4

NCI-H460 = test: as above; assay type: cell-based; settings: CTG assay 72 h; for IC50: Homo sapiens
Protocol: as §1, §2, §3, §4

OVCAR-3 = test: as above; assay type: cell-based; settings: CTG assay 72 h; for IC50: Homo sapiens
Protocol: as §1, §2, §3, §4

SK-OV3 = test: as above; assay type: cell-based; settings: for IC50: Homo sapiens, SK-OV-3, CTG assay 72 h
Protocol: as §1, §2, §3, §4

[1] = ProGem1 clinical study (NUC-1031 alone), plasma pharmacokinetics; assay type: in vivo, human
Excerpt: (§5) ProGem1 was a first-time-in-human (FTIH), phase I, open label, two stage study to investigate the safety, tolerability, clinical efficacy, pharmacokinetics (PK) and pharmacodynamics (PD) of NUC-1031 given in two parallel dosing schedules in subjects with advanced solid malignancies (EudraCT Number: 2011-005232-26). Subjects had the following tumour types at study entry: colorectal cancer (7 subjects), unknown primary (3), ovarian cancer (12), breast cancer (4), pancreatic cancer (9), cholangiocarcinoma (7), endometrial cancer (3), cervical cancer (2), lung cancer (7), mesothelioma (3), oesophageal cancer (3), cancer of the fallopian tube (1), trophoblast (1), renal cancer (1), gastric cancer (1), anal cancer (1), cancer of the thymus (1) and osteosarcoma (1).

[2] = ABC-008 clinical study (NUC-1031 in combination with cisplatin), plasma pharmacokinetics; assay type: in vivo, human
Protocol: Initial pharmacokinetic analysis was conducted on samples obtained from the first three patients on the ABC-008 clinical study.
Patient 1: —Metastatic Biliary Tract Carcinoma—Starting dose: 625 mg/m^2 (S)-NUC-1031+25 mg/m^2 cisplatin
Patient 2: —Metastatic Biliary Tract Carcinoma—Starting dose: 625 mg/m^2 (S)-NUC-1031+25 mg/m^2 cisplatin
Patient 3: —Metastatic Biliary Tract Carcinoma—Starting dose: 625 mg/m^2 (S)-NUC-1031+25 mg/m^2 cisplatin
Both NUC-1031 and cisplatin were administered on days 1 and 8 of a 21 day cycle.
An appropriate dosage of 625 mg/m^2 of NUC-1031 was prepared in a Luerlock syringe. The dosage given was based on the subject's height and weight using a standard body surface area (BSA) calculation. A polyethylene extension line was primed with up to 1.5 ml of Flushing Solution, prior to connecting the syringe containing NUC-1031 to the extension line.
The extension line was connected to the patient's Central Venous Access Device (CVAD), and NUC-1031 was injected at a rate of 20 ml/hour using a syringe pump.
Once the injection was complete the NUC-1031 syringe was disconnected from the extension line, and the extension line was then flushed with an additional volume of up to 3 ml of Flushing solution.

[3] = ProGem1 clinical study (NUC-1031 alone), intracellular dFdCTP pharmacokinetics; assay type: in vivo, human; settings: ProGem1 (n = 67), NUC-1031 as a single agent; no normalisation
Excerpt: as §5

[4] = absolute IC50, read-out: Ab IC50
[5] = ABC-008 (with cisplatin) compared to ProGem1 (single agent NUC-1031)

With `C[C@H](NP(=O)(OC[C@H]1O[C@@H](n2ccc(N)nc2=O)C(F)(F)[C@H]1O)Oc1ccccc1)C(=O)OCc1ccccc1` (stereo partly drawn) [NUC-1031, 2′-Deoxy-2′,2′-difluoro-D-cytidine-5′-O-[phenyl (benzoxy-L-alaninyl)] phosphate] the “Max Inhibition_%” value 5637 was 77.88%, the IC50 5637; [4] was 200 nM and the IC50 (5637; relative IC50, read-out: IC50) was 120 nM. For the same compound, the “Max Inhibition_%” value (A2780) was 79.15%, the IC50 (A2780; [4]) was 25 nM and the IC50 (A2780; relative IC50, read-out: IC50) was 16 nM. For the same compound, the “Max Inhibition_%” value (HT1376; CTG assay 72 h) was −2.54%, the IC50 (HT1376; [4]) was over 1980 nM and the IC50 (HT1376; relative IC50, read-out: IC50) was over 1980 nM. For the same compound, the “Max Inhibition_%” value (NCI-H1975) was 37.91%, the IC50 (NCI-H1975; [4]) was over 1980 nM and the IC50 (NCI-H1975; relative IC50, read-out: IC50) was 370 nM. For the same compound, the “Max Inhibition_%” value (NCI-H460) was 91.98%, the IC50 (NCI-H460; [4]) was 40 nM and the IC50 (NCI-H460; relative IC50, read-out: IC50) was 40 nM. The “Max Inhibition_%” value (OVCAR-3) was 11.76%, the IC50 (OVCAR-3; [4]) was over 1980 nM and the IC50 (OVCAR-3; relative IC50, read-out: IC50) was 200 nM. The “Max Inhibition_%” value (SK-OV3; CTG assay 72 h) was 61.59%, the IC50 (SK-OV3; [4]) was 70 nM and the IC50 (SK-OV3; relative IC50, read-out: IC50) was 60 nM. For the same compound, the “levels of the metabolite dFdU relative to gemcitabine” value ([1]; ProGem1, compared with levels normally associated with gemcitabine) was “less than half”, the clearance ([1]; human, plasma, ProGem1 (n = 67), NUC-1031 as a single agent) was 86.7 mL/min and the Cmax ([1]; human, plasma, ProGem1 (n = 67), NUC-1031 as a single agent, no normalisation) was 66.5 µg/mL. The AUC(0-t) ([1]; human, plasma, ProGem1 (n = 67), NUC-1031 as a single agent, no normalisation, read-out: Mean AUC0-24, plasma NUC-1031) was 66500 ng·h/mL, the half-life ([1]; human, plasma, ProGem1 (n = 67), NUC-1031 as a single agent, read-out: Mean terminal t1/2, plasma NUC-1031 (converted)) was 54 min and the Tmax ([1]; human, plasma, ProGem1 (n = 67), NUC-1031 as a single agent, read-out: Median Tmax, plasma NUC-1031) was 30 min. The “AUC increase, NUC-1031 plasma” value [2, 5] was 2.1 fold, the “Cmax increase, NUC-1031 plasma” value [2, 5] was 1.9 fold and the “increase in half-life, NUC-1031 plasma PK parameters” value ([2]; ABC-008 (with cisplatin) compared to single agent NUC-1031) was 3.6 fold. The “Mean AUC0-24, intracellular dFdCTP” value [3] was 1379.0 pmol/million cells · hr and the “Mean Cmax, intracellular dFdCTP” value [3] was 391.8 pmol/million cells.
